According to PubChem BioAssay (NCI):
Several values for one entry are separate records, joined by “and”; a condition that tells them apart may be missing. Equal entries are not always repeated.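 Interpolation was linear, between the two tested concentrations surrounding the appropriate level; five concentrations were tested over 48 hours in 96-well plates. GI50 = concentration required for 50% inhibition of growth. Definition used: TGI = concentration required for complete inhibition of growth.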

Tests used:
Assay in all cases: NCI-60 cell line screen, 48 h
SNB-19 CNS = test system: SNB-19 CNS
K-562 leukemia = test system: K-562 leukemia
U251 CNS = test system: U251 CNS
HCT-116 colon = test system: HCT-116 colon
SNB-75 CNS = test system: SNB-75 CNS
HL-60(TB) leukemia = test system: HL-60(TB) leukemia
UO-31 renal = test system: UO-31 renal
MALME-3M melanoma = test system: MALME-3M melanoma
SW-620 colon = test system: SW-620 colon
ACHN renal = test system: ACHN renal
SK-OV-3 ovarian = test system: SK-OV-3 ovarian
CAKI-1 renal = test system: CAKI-1 renal
MOLT-4 leukemia = test system: MOLT-4 leukemia
OVCAR-3 ovarian = test system: OVCAR-3 ovarian

SMILES	TGI (SNB-19 CNS)	TGI (K-562 leukemia) [µM]	TGI (U251 CNS)	TGI (HCT-116 colon)	TGI (SNB-75 CNS)	TGI (HL-60(TB) leukemia)	TGI (UO-31 renal)	TGI (MALME-3M melanoma)	TGI (SW-620 colon)	TGI (ACHN renal)	TGI (SK-OV-3 ovarian)	TGI (CAKI-1 renal)	TGI (MOLT-4 leukemia)	TGI (OVCAR-3 ovarian)	GI50 (K-562 leukemia) [µM]	GI50 (U251 CNS)	GI50 (SW-620 colon)	GI50 (MOLT-4 leukemia) [µM]
O=C1c2cc3c(cc2CC12Cc1ccccc1C2)CCC3	> 100 µM	> 100	> 100 µM	47.5 µM	93.8 µM	81.6 µM	> 100 µM	71.5 µM	> 100 µM	97.7 µM	> 100 µM	75.1 µM	54.5 µM	> 100 µM				
O=C1c2ccccc2CC12Cc1cc3c(cc1C2)CCC3	> 100 µM	> 100	> 100 µM	> 100 µM	> 100 µM	> 100 µM	> 100 µM	76.2 µM	> 100 µM	> 100 µM	> 100 µM	> 100 µM	82.1 µM	> 100 µM				
CCCC(=O)OCC1OC(n2cc(F)c(=O)[nH]c2=O)C(F)C1O (stereo unspecified)	> 100 µM	> 100	> 100 µM	> 100 µM	> 100 µM	> 100 µM	> 100 µM	> 100 µM	> 100 µM	> 100 µM	> 100 µM		> 100 µM	> 100 µM				
FC(F)(F)c1ccc2c(-c3cc[nH]c3)ccnc2c1	58.8 µM	> 100	> 100 µM	> 100 µM	33.8 µM	42.2 µM	48.3 µM	50.4 µM	> 100 µM	> 100 µM	> 100 µM	94 µM	59.3 µM	88 µM				
O=S(Cc1ccccc1)c1ccccc1Cn1cccc1 (stereo unspecified)	> 100 µM	> 100	> 100 µM	> 100 µM	> 100 µM	> 100 µM	> 100 µM	> 100 µM	> 100 µM	> 100 µM	> 100 µM	> 100 µM		> 100 µM				
O=C1C(Cl)C(c2ccccc2Cl)N1n1cnc2ccccc2c1=O (stereo unspecified)	> 100 µM	> 100	> 100 µM	> 100 µM	59.4 µM	57.4 µM	73.2 µM	> 100 µM	> 100 µM	> 100 µM	72.5 µM	> 100 µM	> 100 µM	> 100 µM				
NC(=O)c1ncn(C2C=CC(CP(=O)(O)O)C2)c1N (stereo unspecified)	> 100 µM	> 100	> 100 µM	> 100 µM	> 100 µM	> 100 µM	> 100 µM	> 100 µM	> 100 µM	> 100 µM	> 100 µM	> 100 µM	> 100 µM	> 100 µM				
Cc1c(-c2ccccc2)c(C#N)c2nnn(-c3ccc(Cl)cc3)c(=O)n12	> 100 µM	> 100	27.3 µM	> 100 µM	> 100 µM	> 100 µM	> 100 µM	> 100 µM	> 100 µM	> 100 µM	> 100 µM	> 100 µM		52.2 µM				
O=C(CCN1CCCCC1)Nc1ccc2c(c1)C(=O)c1ccc(NC(=O)CCN3CCCCC3)cc1C2=O	10.1 µM	7.64	9.97 µM	3.2 µM	8 µM	20.8 µM	32.8 µM	25.5 µM	4.62 µM	23.9 µM	26.4 µM	27.5 µM	14.5 µM	20.9 µM				
Cc1cc(C)c(/C=C2\C(=O)Nc3ccccc32)[nH]1	> 100 µM	> 100	> 100 µM	> 100 µM	> 100 µM	> 34.1 µM	> 100 µM	> 100 µM	> 100 µM	> 100 µM	> 100 µM	> 100 µM	> 100 µM	> 100 µM				
N=S(c1ccccc1[N+](=O)[O-])c1ccccc1[N+](=O)[O-]	22.5 µM and 20.9 µM	7.29	27.7 µM and 29.5 µM	3.28 µM and 3.58 µM	20.5 µM and 15.6 µM	2.57 µM and 3.39 µM	3.94 µM and 7.44 µM	6.1 µM and 7.33 µM	2.95 µM and 10 µM	3.22 µM and 3.61 µM	17 µM and 15.7 µM	4.19 µM and 12 µM	4.7 µM and 20.4 µM	1.63 µM and 3.05 µM	2.19	14.5 µM and 16 µM	1.14 µM and 2.47 µM	3.93
Cc1cc(Cl)ccc1NC(=O)/C(=N\NC(C)(C)C)C(C#N)c1nc(-c2ccc([N+](=O)[O-])cc2)cs1 (stereo unspecified)	> 100 µM	> 100	> 100 µM	> 100 µM	> 100 µM	> 100 µM	> 100 µM	> 100 µM	> 100 µM	> 100 µM	> 100 µM	> 100 µM	> 100 µM	> 100 µM				
CCOC(=O)C(C)NC(=O)NC12CC3CC(CC(F)(C3)C1)C2 (stereo unspecified)	> 100 µM	> 100	> 100 µM	> 100 µM	> 100 µM	> 100 µM	> 100 µM	> 100 µM	> 100 µM	> 100 µM	> 100 µM		> 100 µM	> 100 µM				
CN(C)CC1(C)CC/C(=C\c2ccc(Cl)cc2)C1=O (stereo unspecified)	65.2 µM	> 100	> 100 µM	> 100 µM	> 100 µM	> 100 µM	> 100 µM	> 100 µM	35.5 µM	> 100 µM		> 100 µM	55.8 µM	> 100 µM				
Cc1ccc(NC(=O)C2C3C=CC(O3)C2C(=O)O)cc1 (stereo unspecified)	> 100 µM	> 100	> 100 µM	> 100 µM	> 100 µM	> 100 µM	> 100 µM	> 100 µM	26.8 µM	> 100 µM	> 100 µM		> 100 µM	> 100 µM				
Oc1ccc(Br)cc1C=Nc1c(NC2CCCCC2)oc2ccc(Br)cc12	> 100 µM	29.2	> 100 µM	28.7 µM	79.5 µM	21.8 µM	> 100 µM	> 100 µM	> 100 µM	> 100 µM	> 100 µM	> 100 µM		68.6 µM				
